In general, inhibition refers to the drop in the measured response relative to a control, in per cent. Usually IC50 stands for the concentration at which inhibition is half-maximal.

The results in this text go back to ChEMBL document CHEMBL3351785, “Discovery of nanomolar phosphoinositide 3-kinase gamma (PI3Kγ) inhibitors using ligand-based modeling and virtual screening followed by in vitro analysis” (Eur J Med Chem, 2014).

Molecules are shown by their SMILES. Non-standard residues stand in square brackets, D forms with d. Residues, ends and D or L forms follow the SMILES beside them. *: point of attachment. Cbz = O=C(OCc1ccccc1)*; Nva = CCC[CH](N)C(=O)O; Bn = c1ccc(C*)cc1

In one assay the target is T1, Phosphatidylinositol 4,5-bisphosphate 3-kinase catalytic subunit gamma isoform (Homo sapiens, UniProt P48736). Briefly: Inhibition of PI3Kgamma (unknown origin) assessed as decrease in fluorescence intensity using phosphorylated substrate at 10 uM.
Target sequence in this assay (P48736 whole entry, looked up, canonical isoform): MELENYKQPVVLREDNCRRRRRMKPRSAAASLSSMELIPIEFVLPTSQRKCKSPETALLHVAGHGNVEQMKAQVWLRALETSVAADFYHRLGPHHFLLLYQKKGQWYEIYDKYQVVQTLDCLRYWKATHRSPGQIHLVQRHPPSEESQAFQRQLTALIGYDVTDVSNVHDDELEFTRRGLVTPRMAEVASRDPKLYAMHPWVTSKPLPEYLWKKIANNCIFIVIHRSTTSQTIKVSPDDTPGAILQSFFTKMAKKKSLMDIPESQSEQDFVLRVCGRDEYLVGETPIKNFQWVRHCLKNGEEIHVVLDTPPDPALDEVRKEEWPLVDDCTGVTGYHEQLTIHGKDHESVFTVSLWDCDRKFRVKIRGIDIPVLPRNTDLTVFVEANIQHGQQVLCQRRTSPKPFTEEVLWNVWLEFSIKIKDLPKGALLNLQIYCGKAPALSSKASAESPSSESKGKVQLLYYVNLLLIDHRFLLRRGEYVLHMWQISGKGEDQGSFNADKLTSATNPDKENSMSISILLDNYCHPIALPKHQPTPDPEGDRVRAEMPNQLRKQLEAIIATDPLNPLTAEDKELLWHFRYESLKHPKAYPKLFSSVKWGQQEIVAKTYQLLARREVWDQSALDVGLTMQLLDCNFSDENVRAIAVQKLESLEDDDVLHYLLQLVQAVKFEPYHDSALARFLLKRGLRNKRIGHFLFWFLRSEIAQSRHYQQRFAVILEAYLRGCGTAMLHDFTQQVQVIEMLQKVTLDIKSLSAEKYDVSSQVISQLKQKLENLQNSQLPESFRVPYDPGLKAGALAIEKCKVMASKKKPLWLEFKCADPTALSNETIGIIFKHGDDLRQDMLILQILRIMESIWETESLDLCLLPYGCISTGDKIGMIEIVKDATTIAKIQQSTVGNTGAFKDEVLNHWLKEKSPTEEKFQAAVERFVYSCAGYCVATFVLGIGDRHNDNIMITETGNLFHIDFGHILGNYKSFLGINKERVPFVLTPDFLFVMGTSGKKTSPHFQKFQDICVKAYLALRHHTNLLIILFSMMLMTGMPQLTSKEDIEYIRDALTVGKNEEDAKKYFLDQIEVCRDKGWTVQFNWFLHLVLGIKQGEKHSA
For the compound `CCCCCCCCCCCCCCCC1=NN(c2ccc(S(=O)(=O)O)cc2)C(=O)C1/N=N/c1ccccc1` (stereo unspecified), the inhibition came to 92%.
Same read-out and setting: the result for `O=C(O)c1ccccc1SC(Sc1ccccc1C(=O)O)c1cccc(Cl)c1` reads 88%; that for `COc1ccc(C(CC(=O)c2ccc3c(c2)OCO3)C(=O)O)cc1OC` (stereo unspecified), 94%; that for `O=C(O)C(Nc1ccc(Oc2ccc(NC(C(=O)O)c3ccccc3)cc2)cc1)c1ccccc1` (stereo unspecified), 57%.
On the same count and under the same terms, the result for `COc1cc(/N=N\c2ccc(S(=O)(=O)O)cc2)ccc1/N=N/c1c(O)ccc2cc(S(=O)(=O)O)ccc12` reads 62%; that for `CCCCOc1ccc(C(CC(=O)O)CC(=O)O)cc1OC`, 98%.
Still for that read-out and setting: under `CCN1C(=O)/C(=C\c2cc([N+](=O)[O-])ccc2OCC(=O)O)SC1=S` stands 81%; under `O=C(NC(CSCc1ccccc1)C(=O)NC(Cc1ccc(O)cc1)C(=O)O)OCc1ccccc1` (stereo unspecified) (Cbz-Cys(Bn)-Tyr-OH; configuration not given here), 40%.
In the case of `COc1ccc2cc(C(=O)CCCC(C)C(=O)O)ccc2c1` (stereo unspecified), the inhibition came out at 58%.
As to `COc1ccccc1/N=N/c1c(O)ccc2cc(S(=O)(=O)O)ccc12`, the inhibition came out at 19%.
Still for that read-out and setting: under `CC(C)CC(NC(=O)OCc1ccccc1)C(=O)NC(Cc1ccc(O)cc1)C(=O)O` (stereo not drawn) (Cbz-Leu-Tyr-OH; configuration not given here) stands 57%.
On to `CCCC(NC(=O)OCc1ccccc1)C(=O)NC(Cc1ccc(O)cc1)C(=O)O` (stereo unspecified) (Cbz-[Nva]-Tyr-OH; configuration not given here), for which the inhibition stood at 10%.
As for `O=C(NC(Cc1ccc(OC(=O)OCc2ccccc2)cc1)C(=O)O)OCc1ccccc1` (stereo unspecified), the inhibition turned out to be 79%.
Regarding `CSCCC(NCc1c(O)ccc2c(-c3ccccc3)cc(=O)oc12)C(=O)O` (stereo unspecified), the inhibition worked out at 27%.
Take `CCOc1nc(OCC)c2[nH]c(C(=O)O)c(Br)c2n1`: the inhibition worked out at 50%.
Consider `O=C(O)CCC(=O)c1ccc(Oc2ccc(Cl)cc2)cc1`, for which the inhibition worked out at 51%.
For the compound `Cc1cc(C(=O)O)c(C)cc1SSc1cc(C)c(C(=O)O)cc1C`, the inhibition stood at 83%.
On to `O=C(O)Cc1ccc(OCCCCCOc2ccc(CC(=O)O)cc2)cc1`, for which the inhibition stood at 7%.
As to `O=S(=O)(O)c1ccc(OCCCCCCCCCCOc2ccc(S(=O)(=O)O)cc2)cc1`, the inhibition stood at 11%.
For `O=C(COc1ccc(Cl)cc1C(=O)O)Nc1cccc(NC(=O)Nc2cccc(S(=O)(=O)F)c2)c1`, the inhibition is 51%.
Still for that read-out and setting: under `O=S(=O)(O)c1ccc2c(/N=N/c3ccccc3Cl)c(O)ccc2c1` stands 76%.
Turning to `Cc1ccccc1/N=N\c1ccc(/N=N/c2c(O)ccc3cc(S(=O)(=O)O)ccc23)c(C)c1`, the inhibition worked out at 64%.
On the same count and under the same terms, under `O=S(=O)(O)c1ccc(OCCCCCCCCOc2ccc(S(=O)(=O)O)cc2)cc1` stands 83%; under `COc1cc(C(CC(=O)O)CC(=O)O)ccc1OCc1ccccc1`, 57%.
Same read-out and setting: the result for `O=C(CCCCn1cnc2c(SCc3ccccc3)ncnc21)Nc1ccc(C(=O)O)c(O)c1` reads 37%; that for `COc1ccc(C(CC(=O)O)c2cc(OC)c(OC)c(OC)c2)cc1OC` (stereo unspecified), 58%.
As to `Cc1cc2c(cc1C(=O)CCC(=O)O)CC1(C2)Cc2cc(C)c(C(=O)CCC(=O)O)cc2C1`, the inhibition was found to be 67%.
Turning to `COc1cc2cc3c4cc(OC)c(OC)cc4cc[n+]3c(CCC(=O)O)c2cc1OC`, the inhibition stood at 57%.
Consider `O=S(=O)(O)c1cc(O)c2ccc(Nc3ccc4c(O)cc(S(=O)(=O)O)cc4c3)cc2c1`, for which the inhibition came out at 31%.
Same read-out and setting: the result for `CCOc1ccc(Nc2ccc3c(O)cc(S(=O)(=O)O)cc3c2)cc1` reads 72%; that for `O=C(O)Cc1ccc(OCCCOc2ccc(CC(=O)O)cc2)cc1`, 24%; that for `CCCCOc1ccc(CCC(=O)O)cc1OCCCC`, 20%.
In the case of `O=C(O)C[S+]([O-])c1ccc2c3c(cccc13)C(=O)c1ccccc1-2` (stereo unspecified), the inhibition was 67%.
In the case of `COC[C@H]1OC(=O)c2coc3c2[C@@]1(C)C1=C(C3=O)[C@@H]2CCC(=O)[C@@]2(C)C[C@H]1OC(C)=O`, the inhibition worked out at 100%.
Same read-out and setting: the result for `COc1cc2cc(C(=O)O)[nH]c2cc1OCc1ccccc1` reads 100%; that for `COc1cc(C[C@@H](CC(=O)c2ccc3c(c2)OCO3)C(=O)O)cc(OC)c1OC`, 83%; that for `COc1ccccc1/N=N/c1c(O)c(S(=O)(=O)O)cc2cc(S(=O)(=O)O)ccc12`, 76%.
Same read-out and setting: under `O=C(NC(Cc1ccc(O)cc1)C(=O)O)C(=O)c1c[nH]c2ccc([N+](=O)[O-])cc12` (stereo unspecified) stands 34%; under `O=C(NC(Cc1ccccc1)C(=O)NC(Cc1ccc(O)cc1)C(=O)O)OCc1ccccc1` (stereo not drawn) (Cbz-Phe-Tyr-OH; configuration not given here), 34%.

The next assay has as its target T1, Phosphatidylinositol 4,5-bisphosphate 3-kinase catalytic subunit gamma isoform. Briefly: Inhibition of PI3Kgamma (unknown origin) assessed as decrease in fluorescence intensity using phosphorylated substrate.
Target sequence in this assay (P48736 whole entry, canonical isoform): as the sequence (P48736 whole entry, looked up, canonical isoform) above
As for `O=C(O)c1ccccc1SC(Sc1ccccc1C(=O)O)c1cccc(Cl)c1`, the IC50 is 187 nM.
With `O=C1NC(=S)S/C1=C\c1ccc2c(c1)N(CCc1ccccc1)C(=O)CO2`, the IC50 came out at 103 nM.
The same measure, in the same setting: the result for `Cc1ccc(CCN2C(=O)COc3ccc(/C=C4\SC(=S)NC4=O)cc32)cc1` reads 37.3 nM; that for `COc1ccc(C(CC(=O)c2ccc3c(c2)OCO3)C(=O)O)cc1OC` (stereo unspecified), 234 nM.
As for `Cc1cccc2nc(CSc3ncnc4[nH]cnc34)n(-c3ccccc3Cl)c(=O)c12`, the half-inhibitory concentration (IC50) stood at 6170 nM.
Same read-out and setting: the result for `COc1cc(O)cc(/C=C2\SC(=S)NC2=O)c1` reads 328 nM; that for `O=C1NC(=S)S/C1=C\c1ccc2c(c1)N(Cc1ccc(C(F)(F)F)cc1)C(=O)CO2`, 116 nM.
As to `O=c1cc(N2CCOCC2)[nH]c2c(Oc3ccccc3F)cccc12`, the IC50 turned out to be 7260 nM.
Consider `CCCCOc1ccc(C(CC(=O)O)CC(=O)O)cc1OC`, for which the IC50 was 134 nM.
The same measure, in the same setting: under `CC(C)(C)c1ccc(CCN2C(=O)COc3ccc(/C=C4\SC(=S)NC4=O)cc32)cc1` stands 140 nM.
On the same count and under the same terms, the result for `O=C1NC(=S)S/C1=C\c1ccc2c(c1)N(CCc1ccc(Cl)cc1)C(=O)CO2` reads 20.1 nM; that for `COc1ccccc1CNc1cc(C)cc2c(=O)cc(N3CCOCC3)[nH]c12`, 10700 nM; that for `COc1ccc2cc(C(=O)CCCC(C)C(=O)O)ccc2c1` (stereo unspecified), 5180 nM.
Consider `O=C1NC(=S)S/C1=C\c1ccc2c(c1)N(Cc1ccc(Cl)cc1)C(=O)CO2`, for which the IC50 came out at 30 nM.
The same measure, in the same setting: the result for `O=c1c2c(Cl)cccc2nc(CSc2ncnc3[nH]cnc23)n1-c1ccccc1F` reads 3630 nM; that for `CCCCn1c(CSc2ncnc3[nH]cnc23)nc2ccccc2c1=O`, 218000 nM.
Regarding `O=C1NC(=S)S/C1=C\c1ccc(-c2cc([N+](=O)[O-])ccc2Br)o1`, the IC50 was found to be 3600 nM.
The same measure, in the same setting: the result for `O=C(NC(Cc1ccc(OC(=O)OCc2ccccc2)cc1)C(=O)O)OCc1ccccc1` (stereo unspecified) reads 324 nM; that for `Cc1ccc(CN2C(=O)COc3ccc(/C=C4\SC(=S)NC4=O)cc32)cc1C`, 11 nM; that for `O=c1cc(N2CCOCC2)[nH]c2c(OCc3ccccc3)cccc12`, 10900 nM.
With `O=C1NC(=S)S/C1=C\c1ccc2c(c1)N(Cc1ccccc1)C(=O)CO2`, the IC50 was found to be 97 nM.
For the compound `N#Cc1ccc(CN2C(=O)COc3ccc(/C=C4\SC(=S)NC4=O)cc32)cc1`, the 50% inhibitory concentration (IC50) was determined as 152 nM.
On the same count and under the same terms, the result for `COc1cccc(CCN2C(=O)COc3ccc(/C=C4\SC(=S)NC4=O)cc32)c1` reads 11.2 nM; that for `CC(C)(C)c1ccc(CN2C(=O)COc3ccc(/C=C4\SC(=S)NC4=O)cc32)cc1`, 10.2 nM.
On the same count and under the same terms, the result for `O=C1NC(=S)S/C1=C\c1ccc2c(c1)N(CCc1cccc(Cl)c1)C(=O)CO2` reads 18 nM; that for `Cc1cc(C(=O)O)c(C)cc1SSc1cc(C)c(C(=O)O)cc1C`, 1460 nM; that for `O=C1NC(=S)S/C1=C\c1ccc2c(c1)N(CCc1ccc(Br)cc1)C(=O)CO2`, 9.9 nM.
In the case of `O=c1c2ccc(F)cc2nc(CSc2ncnc3[nH]cnc23)n1-c1ccccc1Cl`, the 50% inhibitory concentration (IC50) is 145000 nM.
For `O=c1c2c(F)cccc2nc(CSc2ncnc3[nH]cnc23)n1-c1ccccc1Cl`, the concentration for half-maximal inhibition (IC50) stood at 13100 nM.
For `O=C(COc1ccc(Cl)cc1C(=O)O)Nc1cccc(NC(=O)Nc2cccc(S(=O)(=O)F)c2)c1`, the half-inhibitory concentration (IC50) was determined as 9160 nM.
`O=C1NC(=S)S/C1=C\c1ccc2c(c1)N(CCc1ccc(F)c(F)c1)C(=O)CO2`: the half-maximal inhibitory concentration (IC50) was 20.4 nM.
Still for that read-out and setting: under `COc1cc(CCN2C(=O)COc3ccc(/C=C4\SC(=S)NC4=O)cc32)cc(OC)c1` stands 11.8 nM.
For the compound `COc1cc(C(CC(=O)O)CC(=O)O)ccc1OCc1ccccc1`, the IC50 was 5880 nM.
As for `O=c1cc(N2CCOCC2)[nH]c2c(Oc3ccc(F)cc3)cccc12`, the IC50 was found to be 18100 nM.
On the same count and under the same terms, under `COc1ccc(C(CC(=O)O)c2cc(OC)c(OC)c(OC)c2)cc1OC` (stereo unspecified) stands 6070 nM.
On the same count and under the same terms, the result for `Cc1ccccc1-n1c(CSc2ncnc3[nH]cnc23)nc2cccc(Cl)c2c1=O` reads 2540 nM; that for `O=c1c2ccccc2nc(CSc2ncnc3[nH]cnc23)n1N1CCOCC1`, 138000 nM; that for `O=c1c2c(Cl)cccc2nc(CSc2ncnc3[nH]cnc23)n1-c1ccccc1Cl`, 5450 nM.
As to `COc1ccccc1-c1ccc(/C=C2\SC(=O)NC2=O)o1`, the IC50 came out at 1000 nM.
On to `O=c1cc(N2CCOCC2)[nH]c2c(Cc3ccccc3)cccc12`, for which the IC50 stood at 10900 nM.
On the same count and under the same terms, the result for `COc1cc2cc3c4cc(OC)c(OC)cc4cc[n+]3c(CCC(=O)O)c2cc1OC` reads 7330 nM; that for `Cc1ccc(CN2C(=O)COc3ccc(/C=C4\SC(=S)NC4=O)cc32)cc1`, 124 nM; that for `Cc1cc(F)ccc1Oc1cccc2c(=O)cc(N3CCOCC3)[nH]c12`, 18100 nM.
With `O=C1NC(=S)S/C1=C\c1ccc2c(c1)N(CCc1ccc(Cl)c(Cl)c1)C(=O)CO2`, the IC50 turned out to be 18.4 nM.
As for `O=c1c2c(Cl)cccc2nc(CSc2ncnc3[nH]cnc23)n1-c1ccccc1-c1ccccc1`, the IC50 came out at 7620 nM.
For `CCOc1ccc(Nc2ccc3c(O)cc(S(=O)(=O)O)cc3c2)cc1`, the IC50 stood at 992 nM.
The same measure, in the same setting: the result for `O=C(O)C[S+]([O-])c1ccc2c3c(cccc13)C(=O)c1ccccc1-2` (stereo unspecified) reads 1570 nM; that for `Cc1cccc(CCN2C(=O)COc3ccc(/C=C4\SC(=S)NC4=O)cc32)c1`, 20.9 nM.
Still for that read-out and setting: the result for `COc1ccccc1-n1c(CSc2ncnc3[nH]cnc23)nc2cccc(C)c2c1=O` reads 1820 nM.
The same measure, in the same setting: the result for `COc1cc2cc(C(=O)O)[nH]c2cc1OCc1ccccc1` reads 105 nM; that for `O=C1NC(=S)S/C1=C\c1ccc2c(c1)N(CCc1ccc(Cl)cc1Cl)C(=O)CO2`, 18.1 nM.
Regarding `O=C1NC(=S)S/C1=C\c1ccc2c(c1)N(CCc1ccc(C(F)(F)F)cc1)C(=O)CO2`, the IC50 was determined as 8.1 nM.
On the same count and under the same terms, under `COc1ccc(CCN2C(=O)COc3ccc(/C=C4\SC(=S)NC4=O)cc32)cc1` stands 27.7 nM; under `O=c1c2ccccc2nc(CSc2ncnc3[nH]cnc23)n1-c1ccccc1Cl`, 27900 nM; under `COc1cc(C[C@@H](CC(=O)c2ccc3c(c2)OCO3)C(=O)O)cc(OC)c1OC`, 575 nM.
Consider `Cc1cc(C)cc(CCN2C(=O)COc3ccc(/C=C4\SC(=S)NC4=O)cc32)c1`, for which the half-maximal inhibitory concentration (IC50) is 11.2 nM.
For `Cc1cccc(CN2C(=O)COc3ccc(/C=C4\SC(=S)NC4=O)cc32)c1`, the 50% inhibitory concentration (IC50) is 184 nM.
